According to article PMC8948257, “Limited solvation of an electron donating tryptophan stabilizes a photoinduced charge-separated state in plant (6–4) photolyase” (Scientific Reports, 2022):
Residue numbers refer to the chain shown, from its start.

Assays:
Assay type in all cases: binding
Settings in all cases: 5 mM L-cysteine, 20 mM phosphate pH 7.5, 500 mM NaCl, 10% glycerol, anaerobic, >430 nm light, on ice; native bound cofactor
[1] = target: T1, At64 ((6-4) photolyase from Arabidopsis thaliana) (Arabidopsis thaliana, UniProt O48652, H382S); experiment: steady-state FAD photoreduction by UV-Vis; transient absorption
T1 construct: gene UVR3; pET-28a(+) NdeI/XhoI, His-tagged, expressed in E. coli C41(DE3)/pLysS; TALON and heparin purification
T1 sequence (O48652 20-556 H382S): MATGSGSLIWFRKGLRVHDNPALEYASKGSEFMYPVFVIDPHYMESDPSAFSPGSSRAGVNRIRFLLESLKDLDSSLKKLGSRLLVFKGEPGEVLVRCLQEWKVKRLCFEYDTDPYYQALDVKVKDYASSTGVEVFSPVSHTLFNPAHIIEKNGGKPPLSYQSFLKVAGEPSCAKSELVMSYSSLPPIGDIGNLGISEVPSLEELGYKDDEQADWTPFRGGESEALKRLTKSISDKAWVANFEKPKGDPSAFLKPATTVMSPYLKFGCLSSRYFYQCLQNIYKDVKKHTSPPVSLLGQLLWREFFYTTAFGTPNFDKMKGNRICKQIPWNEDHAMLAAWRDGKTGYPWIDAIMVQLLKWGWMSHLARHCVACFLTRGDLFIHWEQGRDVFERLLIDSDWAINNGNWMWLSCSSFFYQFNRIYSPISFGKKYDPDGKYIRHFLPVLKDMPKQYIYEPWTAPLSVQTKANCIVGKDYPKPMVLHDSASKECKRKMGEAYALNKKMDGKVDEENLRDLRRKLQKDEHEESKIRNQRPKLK

[2] = target: T2, At64 ((6-4) photolyase from Arabidopsis thaliana) (Arabidopsis thaliana, UniProt O48652, H382D); experiment: steady-state FAD photoreduction by UV-Vis
T2 construct: gene UVR3; pET-28a(+) NdeI/XhoI, His-tagged, expressed in E. coli C41(DE3)/pLysS; TALON and heparin purification
T2 sequence (O48652 20-556 H382D): T1 sequence (O48652 20-556 H382S) with S363D

[3] = target: T3, Xl64 (Xenopus laevis (6-4) PL) (Xenopus laevis, UniProt Q9I910, W370F/S372H, form not given); experiment: steady-state FAD photoreduction by UV-Vis
T3 construct: gene Xl64phr; pET28a(+), expressed in E. coli; only the W370F/S372H mutant made here
T3 sequence (Q9I910 1-526 W370F/S372H): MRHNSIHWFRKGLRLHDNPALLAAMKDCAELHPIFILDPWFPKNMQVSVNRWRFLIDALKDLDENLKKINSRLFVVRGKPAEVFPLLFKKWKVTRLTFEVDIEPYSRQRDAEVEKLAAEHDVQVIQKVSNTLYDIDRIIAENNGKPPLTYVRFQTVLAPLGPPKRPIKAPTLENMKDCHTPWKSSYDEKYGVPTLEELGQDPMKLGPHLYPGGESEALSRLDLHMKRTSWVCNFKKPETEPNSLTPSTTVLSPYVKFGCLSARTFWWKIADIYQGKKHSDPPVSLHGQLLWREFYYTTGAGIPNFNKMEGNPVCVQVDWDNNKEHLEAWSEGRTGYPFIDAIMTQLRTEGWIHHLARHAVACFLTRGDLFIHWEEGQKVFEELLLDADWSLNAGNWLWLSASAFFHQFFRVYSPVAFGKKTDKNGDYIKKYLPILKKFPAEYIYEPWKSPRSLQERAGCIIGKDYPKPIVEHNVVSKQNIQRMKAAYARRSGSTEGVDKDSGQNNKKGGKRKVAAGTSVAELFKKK

[4] = target: T4, At64 ((6-4) photolyase from Arabidopsis thaliana) (Arabidopsis thaliana, UniProt O48652, H382Y); experiment: steady-state FAD photoreduction by UV-Vis
T4 construct: gene UVR3; pET-28a(+) NdeI/XhoI, His-tagged, expressed in E. coli C41(DE3)/pLysS; TALON and heparin purification
T4 sequence (O48652 20-556 H382Y): T1 sequence (O48652 20-556 H382S) with S363Y

[5] = target: T5, At64 ((6-4) photolyase from Arabidopsis thaliana) (Arabidopsis thaliana, UniProt O48652, H382V); experiment: steady-state FAD photoreduction by UV-Vis
T5 construct: gene UVR3; pET-28a(+) NdeI/XhoI, His-tagged, expressed in E. coli C41(DE3)/pLysS; TALON and heparin purification
T5 sequence (O48652 20-556 H382V): T1 sequence (O48652 20-556 H382S) with S363V

[6] = target: T6, At64 ((6-4) photolyase from Arabidopsis thaliana) (Arabidopsis thaliana, UniProt O48652, H382N); experiment: steady-state FAD photoreduction by UV-Vis
T6 construct: gene UVR3; pET-28a(+) NdeI/XhoI, His-tagged, expressed in E. coli C41(DE3)/pLysS; TALON and heparin purification
T6 sequence (O48652 20-556 H382N): T1 sequence (O48652 20-556 H382S) with S363N

Cc1cc2nc3c(=O)[nH]c(=O)nc-3n(C[C@H](O)[C@H](O)[C@H](O)COP(=O)(O)OP(=O)(O)OC[C@H]3O[C@@H](n4cnc5c(N)ncnc54)[C@H](O)[C@@H]3O)c2cc1C [flavin adenine dinucleotide]
steady-state FAD photoreduction by UV-Vis; transient absorption [1]: FAD photoreduction in At64-H382S occurred with a half-life | steady-state FAD photoreduction by UV-Vis [2]: we successfully purified the H382D, H382N, H382V and H382Y mutants of At64 | steady-state FAD photoreduction by UV-Vis [3]: the W370F/S372H double mutant of Xl64 (Xl64-W370F/S372H) | steady-state FAD photoreduction by UV-Vis [4]: we successfully purified the H382D, H382N, H382V and H382Y mutants of At64 | steady-state FAD photoreduction by UV-Vis [5]: we successfully purified the H382D, H382N, H382V and H382Y mutants of At64 | steady-state FAD photoreduction by UV-Vis [6]: we successfully purified the H382D, H382N, H382V and H382Y mutants of At64
